27 molecules from patent US9861635B2, “Macrocycles as kinase inhibitors” (Merck Patent GmbH, priority 2013, dated 2018) can be followed below.

pIC50: −log10 of the molar value.

The target of the first assay is T1, GCN2 (Homo sapiens, UniProt Q9P2K8). Briefly: GCN2 enzyme assay (TR-FRET Lanthascreen, GFP-eIF2alpha substrate). As to conditions: 10 μM ATP, 80 nM GFP-eIF2a, 30 nM GCN2. It is filed as biochemical. An excerpt: GCN2: Assay Principle & Conditions
T1 sequence (Q9P2K8 whole entry): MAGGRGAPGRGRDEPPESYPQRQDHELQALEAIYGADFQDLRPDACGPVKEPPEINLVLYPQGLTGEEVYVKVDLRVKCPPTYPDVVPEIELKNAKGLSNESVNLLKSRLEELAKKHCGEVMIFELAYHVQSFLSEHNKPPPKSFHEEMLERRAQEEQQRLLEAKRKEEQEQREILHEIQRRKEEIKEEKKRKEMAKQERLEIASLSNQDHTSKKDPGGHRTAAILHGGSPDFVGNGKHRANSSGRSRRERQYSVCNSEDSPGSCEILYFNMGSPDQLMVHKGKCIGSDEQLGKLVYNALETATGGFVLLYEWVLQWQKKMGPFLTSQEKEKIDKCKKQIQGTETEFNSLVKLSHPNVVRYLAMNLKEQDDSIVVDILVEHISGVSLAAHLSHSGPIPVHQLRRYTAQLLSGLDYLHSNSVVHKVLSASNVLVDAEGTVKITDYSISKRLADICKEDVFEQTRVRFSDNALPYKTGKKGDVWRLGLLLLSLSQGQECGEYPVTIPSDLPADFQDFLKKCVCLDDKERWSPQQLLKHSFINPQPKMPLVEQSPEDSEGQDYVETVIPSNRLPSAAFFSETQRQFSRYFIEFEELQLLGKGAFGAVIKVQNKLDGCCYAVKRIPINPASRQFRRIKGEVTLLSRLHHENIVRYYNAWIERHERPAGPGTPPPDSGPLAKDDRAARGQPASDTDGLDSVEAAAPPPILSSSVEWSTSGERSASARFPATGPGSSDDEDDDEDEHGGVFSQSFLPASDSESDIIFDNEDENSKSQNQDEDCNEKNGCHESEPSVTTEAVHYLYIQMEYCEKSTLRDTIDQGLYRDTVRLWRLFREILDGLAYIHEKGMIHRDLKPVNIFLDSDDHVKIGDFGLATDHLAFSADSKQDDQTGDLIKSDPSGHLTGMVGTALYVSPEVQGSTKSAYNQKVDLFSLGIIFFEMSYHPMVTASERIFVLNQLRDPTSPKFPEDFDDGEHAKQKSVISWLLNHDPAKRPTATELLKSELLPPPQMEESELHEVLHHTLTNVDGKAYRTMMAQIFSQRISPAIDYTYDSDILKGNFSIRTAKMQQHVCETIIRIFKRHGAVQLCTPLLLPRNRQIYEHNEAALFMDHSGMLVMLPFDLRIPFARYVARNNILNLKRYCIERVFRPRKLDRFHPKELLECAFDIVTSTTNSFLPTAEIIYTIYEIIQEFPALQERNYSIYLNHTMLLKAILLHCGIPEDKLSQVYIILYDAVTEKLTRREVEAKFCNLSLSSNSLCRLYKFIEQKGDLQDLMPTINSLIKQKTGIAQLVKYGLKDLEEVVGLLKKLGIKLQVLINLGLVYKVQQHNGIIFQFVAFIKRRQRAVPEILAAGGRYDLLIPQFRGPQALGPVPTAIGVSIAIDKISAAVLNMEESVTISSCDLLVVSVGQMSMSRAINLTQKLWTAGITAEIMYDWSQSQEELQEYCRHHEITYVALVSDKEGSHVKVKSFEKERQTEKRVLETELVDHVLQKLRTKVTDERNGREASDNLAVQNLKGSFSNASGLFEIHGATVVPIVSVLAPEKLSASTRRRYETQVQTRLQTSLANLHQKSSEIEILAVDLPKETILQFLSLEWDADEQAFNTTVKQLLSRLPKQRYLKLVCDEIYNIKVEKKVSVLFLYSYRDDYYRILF
This assay can quantificate the activity of the serin kinase GCN2 (general control non-derepressible-2).
This kinase is involved in the stress metabolism of cells. It is activated upon starvation (amino acid depletion). Its natural substrate is eIF2a (eukaryotic initiation factor 2 alpha subunit), a translation factor, which gets activated (phosphorylated) by GCN2 in case of an amino acid bottleneck in the cells. This in turn leads to a halt of the protein synthesis. Inhibition of GCN2 results in stopping this mechanism: The cell can not stop protein production upon “starvation” stress.
The assay is run in two steps: the enzymatic reaction and the detection step. In the first step GCN2 is incubated with 10 μM ATP and 80 nM of the GFP-labelled substrate eIF2alpha at room temperature.
The enzymatic reaction is stopped by addition of EDTA. The amount of phosphorylated eIF2alpha is determined by TR-FRET (Lanthascreen): A complex is formed consisting of antibody and GFP labelled phospho-eIF2a, which allows a FRET upon excitation at 340 nm.
The GCN2-activity is directly proportional to the ratio of fluorescence units at the emission wavelength 520 nm (phosphopeptide-sensitive wavelength=emission of GFP) to the units at 495 nm (reference wavelength=emission of Terbium-chelate).
Final Concentrations in the Enzymatic Reaction
Background: In TR-FRET formats the signal depends on donor and acceptor labels being close together.
Turning to `O=C1CCOc2ccc(cc2)-n2nnc3cnc(nc32)Nc2cnn(c2)CCCN1` [Compound A1, 2,7-diaza-11-oxa-3H-1(5,3)-[1,2,3]triazolo[4,5-d]pyrimidina-1H-3(4,1)-pyrazola-12(1,4)-benzenacyclododecaphane-8-one], the pIC50 was > 6.00.

Turning to `O=C1CCCOc2ccc(cc2)-n2nnc3cnc(nc32)Nc2cnn(c2)CCCN1` [Compound A2], the negative-log IC50 (pIC50) is > 6.00.

Molecule `O=C1COc2ccc(cc2)-n2nnc3cnc(nc32)Nc2cnn(c2)CCCN1` [Compound A3] had a pIC50 of 5.30 to 6.00.

With `O=C1CCCOc2ccc(cc2)-n2nnc3cnc(nc32)Nc2ccc(cc2)OCCCCN1` [Compound A4], the pIC50 was > 6.00.

Consider `O=C1CCOc2ccc(cc2)-n2nnc3cnc(nc32)Nc2ccc(cc2)CCCN1` [Compound A5], for which the pIC50 is 5.00 to 5.30.

The molecule `O=C1CCCOc2ccc(cc2)-n2nnc3cnc(nc32)Nc2ccc(cc2)CCCN1` [Compound A6] had a pIC50 of 5.30 to 6.00.

As to `O=C1CCCCOc2ccc(cc2)Nc2ncc3nnn(c3n2)-c2cnn(c2)CCCN1` [Compound A7], the pIC50 was > 6.00.

Regarding `O=C1CCn2cc(cn2)-n2nnc3cnc(nc32)Nc2ccc(cc2)OCCCN1` [Compound A8], the pIC50 is 5.00 to 5.30.

`O=C1CCn2cc(cn2)-n2nnc3cnc(nc32)Nc2ccc(cc2)OCCCCN1` [Compound A9]: the pIC50 was 5.00 to 5.30.

Take `c1nn2cc1Nc1ncc3nnn(c3n1)-c1ccc(cc1)OCCNCCC2` [Compound A10]: the pIC50 was > 6.00.

In the case of `O=C1CCn2cc(cn2)-n2nnc3cnc(nc32)Nc2cccc(c2)OCCCN1` [Compound A11], the pIC50 was > 6.00.

Consider `CN1CCCCn2cc(cn2)Nc2ncc3nnn(c3n2)-c2ccc(cc2)OCCCCC1=O` [Compound A12], for which the pIC50 was > 6.00.

`O=C1CCCOc2ccc(cc2)-n2nnc3cnc(nc32)Nc2cccc(c2)OCCCN1` [Compound A13]: the pIC50 was > 6.00.

For the molecule `O=C1CCCOc2ccc(cc2)-n2cnc3cnc(nc32)Nc2cnn(c2)CCCN1` [Compound A14], the pIC50 was > 6.00.

Turning to `O=C1CCCOc2ccc(cc2)-n2cnc3cnc(nc32)Nc2ccc(cc2)OCCCN1` [Compound A15], the pIC50 is > 6.00.

On to `O=C1CCCCOc2ccc(cc2)-n2cnc3cnc(nc32)Nc2ccc(cc2)OCCCN1` [Compound A16], for which the pIC50 was > 6.00.

Regarding `O=C1CCCCOc2ccc(cc2)-n2nnc3cnc(nc32)Nc2cnn(c2)CCC2CCN1CC2` [Compound A17], the negative-log IC50 (pIC50) is 5.30 to 6.00.

With `O=C1CCCOc2ccc(cc2)-n2cnc3cnc(nc32)Nc2ccc(cc2)CCCN1` [Compound A18], the pIC50 is > 6.00.

As to `O=C1CCCCOc2ccc(cc2)-n2cnc3cnc(nc32)Nc2ccc(cc2)CCCN1` [Compound A19], the pIC50 is > 6.00.

`O=C1CCCOc2ccc(cc2)-n2cnc3cnc(nc32)Nc2cnn(c2)CCCO1` [Compound A20]: the pIC50 was 5.30 to 6.00.

For `O=C1CCCOc2ccc(cc2)-n2nnc3cnc(nc32)Nc2cnn(c2)CCN2CCN(CCCN1)CC2` [Compound A21], the pIC50 is > 6.00.

The molecule `O=C1CCCn2cc(cn2)Nc2ncc3nnn(c3n2)-c2ccc(cc2)CN1` [Compound A22] gave a pIC50 of 5.30 to 6.00.

`O=C1CCCn2cc(cn2)Nc2ncc3nnn(c3n2)-c2cnn(c2)CCCN1` [Compound A23]: the pIC50 is > 6.00.

On to `O=C1CCCn2cc(cn2)Nc2ncc3nnn(c3n2)-c2ccc(cc2)OCCCN1` [Compound A24], for which the pIC50 is > 6.00.

Consider `c1cc2ccc1CCNCCCCn1cc(cn1)Nc1ncc3nnn-2c3n1` [Compound A25], for which the pIC50 is > 6.00.

On to `O=C1CCCCOc2ccc(cc2)-n2nnc3cnc(nc32)Nc2cnn(c2)CCCN1` [Compound A26], for which the pIC50 was > 6.00.

As for `O=C1CCCc2ccc(cc2)Nc2ncc3ncn(c3n2)-c2ccc(cc2)OCCCCN1` [Compound A27], the pIC50 was 5.30 to 6.00.

Another assay addresses T1, GCN2. Briefly: Cellular assay of GCN2 activity (phospho-eIF2alpha immunocytochemistry in U2OS cells, tryptophanol). Also noted: endogenous in cells; host or cells: U2OS. As to conditions: 2 h compound, 600 μM tryptophanol 30 min. The class given is cell-based. How it is done: Cellular Assay for the Determination of Compound Activities
Human U2OS cells (2000 cells/well) are seeded into 384-well plates and incubated for 20 hours.
The next day, the cells are treated with the test compounds and incubated for 2 hours. Then, tryptophanol, at a final concentration of 600 μM, is added to the cells and those are incubated for 30 minutes.
The analysis of cellular GCN2 activities is done by immunocytochemistry. Briefly, cells are fixated on the well surfaces by formaldehyde and permeabilized with Triton X-100. The primary antibody (anti-phospho-eIF2alpha (Ser51, Cell Signalling Technology, #3398) is incubated on the treated cells for 20 hours, followed by a 60 minutes incubation of the secondary antibody (anti-rabbit-IgG-Alexa 488; Molecular Probes #11008).
The analysis and quantification of phosphorylated GCN2 is done by scanning the plates in the Acumen Explorer system (TTPLabtech). The obtained data are normalised against the untreated control wells (DMSO only) and expressed as % effect values. The determination of IC50 values is done by using the Graph Pad Prism software.
Turning to `O=C1CCCCOc2ccc(cc2)-n2nnc3cnc(nc32)Nc2cnn(c2)CCCN1` [Compound A26], the pIC50 is > 6.00.

As a reminder, the pIC50 is −log10 of the IC50, conventionally taken in molar units. Low readings indicate a high IC50, high ones a low IC50.
